A short description of the data set: Henry solubility constant Hcp at 298.15 K (mol/(m3 Pa)). Particulars: reference: Ashworth et al. (1988).
On to `CC(Cl)(Cl)Cl` [1,1,1-trichloroethane], for which the “Henry solubility constant Hcp” value turned out to be 0.00057.
The result for `ClC(Cl)C(Cl)Cl` [1,1,2,2-tetrachloroethane] reads 0.022.
Then `ClCC(Cl)Cl` [1,1,2-trichloroethane], with 0.01; and `C=C(Cl)Cl` [1,1-dichloroethene], with 0.00037; and `c1ccc2c(c1)CCCC2` [1,2,3,4-tetrahydronaphthalene], with 0.0051.
Then `CC(Cl)CCl` (centres undefined) [1,2-dichloropropane], with 0.0038; and `Cc1ccccc1C` [1,2-dimethylbenzene], with 0.0019; and `Cc1cc(C)cc(C)c1` [1,3,5-trimethylbenzene], with 0.0014.
Turning to `Clc1cccc(Cl)c1` [1,3-dichlorobenzene], the “Henry solubility constant Hcp” value was found to be 0.003.
On to `Cc1cccc(C)c1` [1,3-dimethylbenzene], for which the “Henry solubility constant Hcp” value amounted to 0.0013.
Then `Clc1ccc(Cl)cc1` [1,4-dichlorobenzene], with 0.0031.
For the molecule `Cc1ccc(C)cc1` [1,4-dimethylbenzene], the “Henry solubility constant Hcp” value was determined as 0.0013.
On to `Cc1ccc(O)c(C)c1` [1-hydroxy-2,4-dimethylbenzene], for which the “Henry solubility constant Hcp” value was found to be 0.0019.
Then `COCCO` [2-methoxyethanol], with 0.00022; and `CCCC(C)C` [2-methylpentane], with 1.3e-05.
Then `CC(=O)CC(C)C` [4-methyl-2-pentanone], with 0.022; and `CC(C)c1ccccc1` [(2-propyl)-benzene], with 0.0016.
`c1ccccc1` [benzene]: the “Henry solubility constant Hcp” value amounted to 0.0018.
As to `Clc1ccccc1` [chlorobenzene], the “Henry solubility constant Hcp” value is 0.0025.
Then `CCCl` [chloroethane], with 0.00079; and `C=CCl` [chloroethene], with 0.0004; and `C1CCCCC1` [cyclohexane], with 5.5e-05.
Regarding `C1CCC2CCCCC2C1` (centres undefined) [decahydronaphthalene], the “Henry solubility constant Hcp” value came to 7.2e-05.
Then `ClC(Br)Br` [dibromochloromethane], with 0.0085; and `ClCCl` [dichloromethane], with 0.0034.
The result for `CCc1ccccc1` [ethylbenzene] reads 0.0012; that for `ClC(Cl)(Cl)C(Cl)(Cl)Cl` [hexachloroethane], 0.0012; that for `CCCCCC` [hexane], 9.9e-06.
The result for `Cc1ccccc1` [methylbenzene] reads 0.0015; that for `CCCCCCCCC` [nonane], 2.3e-05; that for `CCCc1ccccc1` [propylbenzene], 0.0009.
As to `ClC(Cl)=C(Cl)Cl` [tetrachloroethene], the “Henry solubility constant Hcp” value was 0.00054.
With `ClC(Cl)(Cl)Cl` [tetrachloromethane], the “Henry solubility constant Hcp” value amounted to 0.00033.
Then `ClC=C(Cl)Cl` [trichloroethene], with 0.00095.

Values taken from Sander's compilation of Henry's law constants (doi:10.1016/0304-3894(88)85057-x).
